From patent US20220079934A1, “CRENOLANIB FOR TREATING PAIN” (Arog Pharmaceuticals, Inc., priority 2020, published 2022)

Key:
[1] = osteoarthritis patients, lowered dose with risk minimization strategy; 22 patients; cited from earlier work
[2] = molecular target: T1, wildtype TRKA (Homo sapiens, UniProt P04629); test: Reaction Biology HotSpot Kinase assay (direct enzyme phosphorylation), TRKA; assay type: biochemical; conditions: 33P-ATP, 120 minutes at room temperature, filter-binding
T1 construct: purchased Reaction Biology
T1 sequence (P04629 33-796): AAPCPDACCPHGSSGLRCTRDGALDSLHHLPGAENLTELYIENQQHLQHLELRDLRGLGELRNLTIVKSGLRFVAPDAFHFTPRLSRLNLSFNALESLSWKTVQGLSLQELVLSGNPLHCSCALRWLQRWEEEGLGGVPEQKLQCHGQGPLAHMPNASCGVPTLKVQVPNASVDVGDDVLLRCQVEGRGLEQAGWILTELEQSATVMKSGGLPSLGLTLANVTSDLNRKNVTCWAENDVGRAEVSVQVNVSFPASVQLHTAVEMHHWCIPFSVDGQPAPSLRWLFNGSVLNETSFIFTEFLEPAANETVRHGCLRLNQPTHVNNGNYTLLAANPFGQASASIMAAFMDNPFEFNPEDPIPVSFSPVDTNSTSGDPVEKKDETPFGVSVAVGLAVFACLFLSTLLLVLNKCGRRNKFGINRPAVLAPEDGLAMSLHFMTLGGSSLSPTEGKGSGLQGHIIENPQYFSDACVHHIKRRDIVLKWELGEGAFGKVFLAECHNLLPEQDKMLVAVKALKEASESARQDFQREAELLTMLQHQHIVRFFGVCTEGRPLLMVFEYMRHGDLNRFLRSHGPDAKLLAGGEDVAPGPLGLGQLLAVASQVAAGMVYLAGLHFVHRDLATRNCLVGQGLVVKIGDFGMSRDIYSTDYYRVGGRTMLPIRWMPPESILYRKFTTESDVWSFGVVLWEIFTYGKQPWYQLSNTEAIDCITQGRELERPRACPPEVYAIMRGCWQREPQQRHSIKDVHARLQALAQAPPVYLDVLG
Description: (§1) Direct enzyme phosphorylation assay. The Reaction Biology HotSpot Kinase assay was used to screen the present invention against a panel of TRKA, TRKB, and TRKC kinases. For assays of all kinases, the TRK enzyme was prepared in base reaction buffer (20 mM Hepes (pH 7.5), 10 mM MgCl2, 1 mM EGTA, 0.02% Brij35, 0.02 mg/ml BSA, 0.1 mM Na3VO4, 2 mM DTT, 1% DMSO). The reaction was initiated by the addition of 33P-ATP (10 μCi/μL) into the mixture. The reaction mixture was incubated for 120 minutes at room temperature. Radioactivity was detected by filter-binding method, and kinase activity expressed as the percent remaining kinase activity in test samples compared to vehicle reactions. IC50 values and curve fitting were obtained using Prism (GraphPad Software). The activity of the besylate salt of the present invention was determined using a direct enzymatic Reaction Biology HotSpot Kinase assay. All IC50 values are presented in nanomolar concentration. In the direct enzymatic measurement assay, the IC50 of the besylate salt of the current invention against the various TRK kinases is shown in Table 1.

[3] = molecular target: T2, wildtype TRKB (Homo sapiens, UniProt Q16620); test: Reaction Biology HotSpot Kinase assay (direct enzyme phosphorylation), TRKB; assay type: biochemical; conditions: 33P-ATP, 120 minutes at room temperature, filter-binding
T2 construct: purchased Reaction Biology
T2 sequence (Q16620 32-822): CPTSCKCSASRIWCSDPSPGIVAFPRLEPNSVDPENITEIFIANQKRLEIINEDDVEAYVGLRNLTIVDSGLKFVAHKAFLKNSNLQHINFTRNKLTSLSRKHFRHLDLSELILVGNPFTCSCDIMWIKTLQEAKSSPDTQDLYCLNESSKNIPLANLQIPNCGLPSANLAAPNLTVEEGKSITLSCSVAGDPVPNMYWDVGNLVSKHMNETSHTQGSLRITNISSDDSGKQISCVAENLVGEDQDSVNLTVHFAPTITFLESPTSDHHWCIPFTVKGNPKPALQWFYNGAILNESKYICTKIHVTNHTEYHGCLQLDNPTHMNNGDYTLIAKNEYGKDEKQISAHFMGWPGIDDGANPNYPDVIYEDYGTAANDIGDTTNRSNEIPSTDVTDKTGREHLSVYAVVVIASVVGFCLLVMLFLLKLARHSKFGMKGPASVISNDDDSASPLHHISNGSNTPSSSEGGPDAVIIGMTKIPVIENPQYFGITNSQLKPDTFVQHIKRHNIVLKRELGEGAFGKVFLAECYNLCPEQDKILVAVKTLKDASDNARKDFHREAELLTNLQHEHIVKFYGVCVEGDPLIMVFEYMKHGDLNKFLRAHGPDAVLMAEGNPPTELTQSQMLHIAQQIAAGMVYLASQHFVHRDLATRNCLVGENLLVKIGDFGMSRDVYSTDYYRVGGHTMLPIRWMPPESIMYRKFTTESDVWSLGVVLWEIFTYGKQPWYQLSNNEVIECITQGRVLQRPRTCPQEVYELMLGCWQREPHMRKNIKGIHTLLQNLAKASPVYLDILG
Description: as §1

[4] = molecular target: T3, wildtype TRKC (Homo sapiens, UniProt Q16288); test: Reaction Biology HotSpot Kinase assay (direct enzyme phosphorylation), TRKC; assay type: biochemical; conditions: 33P-ATP, 120 minutes at room temperature, filter-binding
T3 construct: purchased Reaction Biology
T3 sequence (Q16288 32-839): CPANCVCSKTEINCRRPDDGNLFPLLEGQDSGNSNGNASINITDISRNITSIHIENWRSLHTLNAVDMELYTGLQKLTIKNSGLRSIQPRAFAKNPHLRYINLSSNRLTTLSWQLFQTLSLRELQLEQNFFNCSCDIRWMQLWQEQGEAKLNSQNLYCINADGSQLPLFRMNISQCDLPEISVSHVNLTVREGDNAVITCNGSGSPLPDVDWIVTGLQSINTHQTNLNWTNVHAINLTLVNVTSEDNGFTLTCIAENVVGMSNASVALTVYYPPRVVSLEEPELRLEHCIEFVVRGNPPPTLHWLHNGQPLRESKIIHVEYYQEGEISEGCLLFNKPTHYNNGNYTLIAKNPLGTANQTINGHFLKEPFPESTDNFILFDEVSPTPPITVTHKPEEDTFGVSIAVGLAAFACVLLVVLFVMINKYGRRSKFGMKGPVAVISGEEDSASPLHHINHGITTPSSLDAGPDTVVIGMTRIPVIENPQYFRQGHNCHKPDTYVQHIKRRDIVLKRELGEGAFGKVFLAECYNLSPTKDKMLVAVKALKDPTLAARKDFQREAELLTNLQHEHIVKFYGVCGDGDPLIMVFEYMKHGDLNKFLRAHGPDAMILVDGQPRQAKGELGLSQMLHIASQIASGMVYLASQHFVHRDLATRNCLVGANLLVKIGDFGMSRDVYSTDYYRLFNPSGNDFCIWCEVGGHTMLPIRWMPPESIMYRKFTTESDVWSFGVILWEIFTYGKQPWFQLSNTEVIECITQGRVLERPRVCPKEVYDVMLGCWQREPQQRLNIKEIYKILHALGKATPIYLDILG
Description: as §1

## tanezumab
[1]
  patients treated who required knee or joint replacement: 9.4%

## CC1(COc2ccc3c(c2)ncn3-c2ccc3cccc(N4CCC(N)CC4)c3n2)COC1 [crenolanib besylate]
[2]
  IC50: 31 nM
[3]
  IC50: 77.7 nM
[4]
  IC50: 1.68 nM
